IC50 data for 15 compounds are collected here from ChEMBL document CHEMBL5352508, “Discovery and Structure-Based Design of Inhibitors of the WD Repeat-Containing Protein 5 (WDR5)-MYC Interaction” (J Med Chem, 2023).

This assay has as its target WDR5-MYC (Homo sapiens, UniProt P61964). Kind of assay: Inhibition of N-terminal his-tagged WDR5 (1 to 334 residues) (unknown origin)/Biotin tagged Myc (256-268 residues) (unknown origin) interaction measured after 1 hrs by HTRF assay. The class given is protein assay. (In general: In TR-FRET formats the signal depends on donor and acceptor labels being close together.)

SMILES strings stand for the structures.

What is called IC50 is the concentration that inhibits the measured activity by half. Lower therefore signals inhibition by little substance. With `CC(=O)c1cccc(-c2cc(F)c(CNC(=O)c3nn(-c4ccccc4)c(C)cc3=O)c(F)c2)c1`, the IC50 is 8130 nM. As for `Cc1cc(=O)c(C(=O)NCc2c(F)cc(N3CC[C@H](O)C3)cc2F)nn1-c1ccccc1`, the IC50 turned out to be 5670 nM. For the compound `Cc1cc(=O)c(O)c(C(=O)NCc2ccc(-c3ccccc3C#N)cc2)o1`, the IC50 is 13900 nM. The value for `Cc1cc(=O)c(C(=O)NCc2c(F)cc(N3CC[C@@H](F)C3)cc2F)nn1-c1ccccc1` was 780 nM. The value for `Cc1cc(=O)c(C(=O)NCc2c(F)cc(-c3cccc(C(C)O)c3)cc2F)nn1-c1ccccc1` (stereo not given) was 5510 nM; that for `Cc1cc(=O)c(C(=O)NCc2c(F)cc(N3CC[C@H](F)C3)cc2F)nn1-c1ccccc1` was 1200 nM; that for `Cc1cc(=O)c(C(=O)NCc2c(F)cc(N3CCCC(F)(F)C3)cc2F)nn1-c1ccccc1` was 820 nM. Compound `Cc1cc(=O)c(C(=O)NCc2c(F)cc(-c3cccc(C(=O)O)c3)cc2F)nn1-c1ccccc1` had an IC50 of 2480 nM. The figure for `Cc1cc(=O)c(C(=O)NCc2c(F)cc(N3CC[C@@H](F)C3)cc2F)nn1-c1cccc(CC(=O)O)c1` is 1430 nM. In turn, `Cc1cc(=O)c(C(=O)NCc2c(F)cc(C3CCCOC3)cc2F)nn1-c1ccccc1` (stereo not given) registered an IC50 of 3830 nM. The figure for `Cc1cc(=O)c(C(=O)NCc2c(F)cc(C3=CC(=O)CCC3)cc2F)nn1-c1ccccc1` is 1580 nM.

`Cc1cc(=O)c(C(=O)NCc2c(F)cc(-c3cccc(S(=O)(=O)F)c3)cc2F)nn1-c1cccc(C(=O)O)c1` gave an IC50 of 190 nM.

Take `Cc1cc(=O)c(C(=O)NCc2c(F)cc(-c3ccccc3)cc2F)nn1-c1cccnc1`: half-maximal inhibition (IC50) required 25400 nM. `Cc1cc(=O)c(C(=O)NCc2c(F)cc(N3CC[C@@H](F)C3)cc2F)nn1-c1cccc(C(=O)O)c1` showed an IC50 of 1230 nM.

In the case of `Cc1cc(=O)c(C(=O)NCc2c(F)cc(-c3cncnc3)cc2F)nn1-c1ccccc1`, the IC50 came out at 13800 nM.
